Measurements: the supplement of paper PMC4862054

Experiments:
Details in all cases: incubation time: 72 h
[1] = tested on: CAL-148; experiment: normalised response (% of control), CellTox Green; higher = less cell death (100 = DMSO, 0 = benzethonium chloride kill control)
In short: (§1)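 Compound was dispensed into 384-well plates at 5 concentrations in 10-fold steps spanning a 10,000-fold range specific to that compound. Breast cancer cell lines were added as 20 µl suspension and left for 72 h before CellTox Green fluorescence (485/520 nm) and then CellTiter-Glo luminescence, read after 10 min at room temperature. Each reported value is the normalised signal at one concentration, with 0.1 % DMSO set at 100 and a positive kill control at 0 on each plate.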

[2] = tested on: CAL-120; experiment: as above
In short: as §1

[3] = tested on: Hs578T; experiment: as above
In short: as §1

[4] = tested on: MCF-10A; experiment: as above
In short: as §1

[5] = tested on: CAL-51; experiment: as above
In short: as §1

[6] = tested on: HDQ-P1; experiment: as above
In short: as §1

[7] = tested on: HCC1937; experiment: as above
In short: as §1

[8] = tested on: MDA-MB-231; experiment: as above
In short: as §1

[9] = tested on: MDA-MB-453; experiment: as above
In short: as §1

[10] = tested on: HCC1599; experiment: as above
In short: as §1

[11] = tested on: CAL-85-1; experiment: as above
In short: as §1

[12] = tested on: MDA-MB-436; experiment: as above
In short: as §1

[13] = tested on: BT-474; experiment: as above
In short: as §1

[14] = tested on: HCC1143; experiment: as above
In short: as §1

[15] = tested on: DU-4475; experiment: as above
In short: as §1

[16] = tested on: MFM-223; experiment: as above
In short: as §1

[17] = tested on: MDA-MB-468; experiment: normalised response (% of control), CellTiter-Glo; higher = more viable cells (100 = DMSO, 0 = benzethonium chloride kill control)
Method: (§2)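 DSRT, 72 h incubation, CellTox Green / CellTiter-Glo readout. Signal is normalised to DMSO and benzethonium chloride controls. Value is the normalised response at dose 3.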

[18] = tested on: CAL-148; experiment: as above
Method: as §2

[19] = tested on: CAL-120; experiment: as above
Method: as §2

[20] = tested on: Hs578T; experiment: as above
Method: as §2

[21] = tested on: MCF-10A; experiment: as above
Method: as §2

[22] = tested on: CAL-51; experiment: as above
Method: as §2

[23] = tested on: HDQ-P1; experiment: as above
Method: as §2

[24] = tested on: HCC1937; experiment: as above
Method: as §2

[25] = tested on: MDA-MB-231; experiment: as above
Method: as §2

[26] = tested on: SK-BR-3; experiment: as above
Method: as §2

[27] = tested on: MDA-MB-453; experiment: as above
Method: as §2

[28] = tested on: BT-549; experiment: as above
Method: as §2

[29] = tested on: HCC1599; experiment: as above
Method: as §2

[30] = tested on: CAL-85-1; experiment: as above
Method: as §2

[31] = tested on: MDA-MB-436; experiment: as above
Method: as §2

[32] = tested on: BT-474; experiment: as above
Method: as §2

[33] = tested on: HCC1143; experiment: as above
Method: as §2

[34] = tested on: DU-4475; experiment: as above
Method: as §2

[35] = tested on: MFM-223; experiment: as above
Method: as §2

[36] = tested on: MDA-MB-468; experiment: normalised response (% of control), CellTox Green; higher = less cell death (100 = DMSO, 0 = benzethonium chloride kill control)
In short: as §1

[37] = tested on: BT-549; experiment: as above
In short: as §1

SMILES | normalised response [1] | normalised response [2] | normalised response [3] | normalised response [4] | normalised response [5] | normalised response [6] | normalised response [7] | normalised response [8] | normalised response [9] | normalised response [10] | normalised response [11] | normalised response [12] | normalised response [13] | normalised response [14] | normalised response [15] | normalised response [16] | normalised response [17] | normalised response [18] | normalised response [19] | normalised response [20] | normalised response [21] | normalised response [22] | normalised response [23] | normalised response [24] | normalised response [25] | normalised response [26] | normalised response [27] | normalised response [28] | normalised response [29] | normalised response [30] | normalised response [31] | normalised response [32] | normalised response [33] | normalised response [34] | normalised response [35] | normalised response [36] | normalised response [37]
CC1(C)CCC(CN2CCN(c3ccc(C(=O)NS(=O)(=O)c4ccc(NCC5CCOCC5)c([N+](=O)[O-])c4)c(Oc4cnc5[nH]ccc5c4)c3)CC2)=C(c2ccc(Cl)cc2)C1 [ABT-199] (100 nM) | 84.2% | 101% | 104% | 81.7% | 101% | 93.6% | 89.3% | 105% | 101% | 99.2% | 94.6% | 83% | 101% | 91.6% | 99.3% | 79.9% | 93.6% | 98.9% | 101% | 107% | 98.2% | 92.4% | 104% | 98.2% | 99.3% | 101% | 90.7% | 100% | 94.2% | 101% | 96.7% | 96.7% | 102% | 102% | 99.2% |  | 
Cn1cnc2c(F)c(Nc3ccc(Br)cc3Cl)c(C(=O)NOCCO)cc21 [Selumetinib] (100 nM) | 90.4% | 95.8% | 102% | 94.8% | 98.7% | 97.9% | 100% | 77.1% | 101% | 89.2% | 94.9% | 77.2% | 96.5% | 86.3% | 92.2% | 94.9% | 89.6% | 94% | 90% | 89.4% | 45.7% | 94.1% | 70.6% | 85% | 84.7% | 91% | 103% | 104% | 113% | 100% | 96.2% | 84.2% | 92% | 81% | 94.9% | 75.3% | 104%
Nc1nc2[nH]cnc2c(=S)[nH]1 [Thioguanine] (100 nM) |  | 100% | 90.5% | 75.6% | 108% | 104% | 96.7% | 105% | 99% | 97.1% | 111% | 89% | 102% | 59.1% | 101% | 98.7% | 98.8% | 102% | 108% | 101% | 97.4% | 109% | 90.8% | 96.3% | 93.5% | 98.9% | 112% | 95.9% | 96.5% | 91.9% | 97% | 83.4% | 101% | 95.7% | 96.8% | 66.4% | 103%
CC(=O)c1c(C)c2cnc(Nc3ccc(N4CCNCC4)cn3)nc2n(C2CCCC2)c1=O [Palbociclib] (100 nM) | 103% | 98.7% | 104% |  | 110% | 101% | 82% | 103% | 107% | 95.2% | 102% | 77% | 99.6% | 55.5% | 98.8% | 101% | 85% | 85.7% | 86.4% | 103% | 85.8% | 72.8% | 103% | 95.7% | 95.9% | 86.3% | 105% | 97.9% | 94.4% | 97.3% | 96.4% | 85.7% | 96.5% | 98% | 79.7% |  | 103%
Nc1ncn([C@@H]2O[C@H](CO)[C@@H](O)[C@H]2O)c(=O)n1 [Azacitidine] (100 nM) | 103% | 96.9% | 103% | 87% | 99.3% | 64.8% | 99.4% | 88.1% | 83.8% | 98% | 108% | 79.5% | 101% | 56% | 98.2% | 97.8% | 96.4% | 101% | 96.3% | 100% | 103% | 99.8% | 103% | 97% | 98.1% | 96% | 89% | 101% | 100% | 99.1% | 99% | 102% | 98.6% | 91.1% | 98% | 115% | 99.9%
CC(=O)O[C@@]12CO[C@@H]1C[C@H](O)[C@@]1(C)C(=O)[C@H](O)C3=C(C)[C@@H](OC(=O)[C@H](O)[C@@H](NC(=O)OC(C)(C)C)c4ccccc4)C[C@@](O)([C@@H](OC(=O)c4ccccc4)[C@H]21)C3(C)C [Docetaxel] (10 nM) | 61.8% | 88.8% | 39.5% | 56.1% | 11.5% | -5.27% | 24.7% | -111% | 99.3% | 95.8% | 26.6% | 79.8% | 65.8% | 88.9% | 94% | 77.9% | 22.7% | 38.2% | 61.7% | 28.1% | 46.2% | 43.1% | 69.4% | 67.3% | 53.4% | 12.2% | 61.2% | 20.5% | 71.9% | 26.6% | 40.7% | 67.8% | 35.5% | 68.8% | 54.3% | 104% | 63.4%
COc1cc2c(cc1O)CC[C@@H]1[C@@H]2CC[C@]2(C)[C@@H](O)CC[C@@H]12 [2-methoxyestradiol] (100 nM) | 56.1% | 98% | 103% | 61.8% | 78.3% | 107% | 97.3% | 99.3% | 101% | 102% | 87.6% | 87.4% | 94% |  | 98.7% | 102% | 103% | 90.6% | 101% | 102% | 94.5% | 63.5% | 103% | 93.4% | 102% | 89% | 91.1% | 95.5% | 89.4% | 97.3% | 101% | 98.5% | 100% | 101% | 94.2% | 69.5% | 110%
Cn1cc(C2=Nc3cc(NC(=O)C(N)C4CCCCC4)cc4c3C2=CNNC4=O)cn1 (stereo not drawn) (100 nM) |  | 92% | 98.8% | 62.9% | 96.1% | 107% | 76.5% | 96.3% | 85% | 89.5% | 73% |  | 97.7% | 101% | 96.7% | 98.5% | 88.8% | 82.7% | 89% | 90.7% | 81.7% | 96.7% | 95.2% | 95.1% | 93.5% | 74.1% | 74.1% | 93.5% | 63.3% | 87.1% | 91.6% | 94.4% | 90.9% | 95.1% | 77.8% | 106% | 87.2%
